Assay results from publication PMC3023143 (Nature, 2011).

Key:
β1AR-m23 = assay: Ligand efficacy at β1AR-m23; assay type: cell-based, turkey (Meleagris gallopavo); conditions: β1AR-m23, Supplementary Table 3
human β1AR = conditions: no reference given; cited from earlier work

CC(CCc1ccc(O)cc1)NCCc1ccc(O)c(O)c1 (centres unmarked) [Dobutamine, dobutamine]
ligand efficacy class (β1AR-m23): partial agonists | ligand efficacy class (human β1AR): partial agonists
